Assay results published in patent US12516346B2, “Intelligent genetic breeding and seed production system for crop cross breeding and hybrid seed production, and application thereof” (Hainan Bolian Technology Co., Ltd., priority 2020, dated 2026).

Assays:
Format in all cases: in vivo, rice
[1] = tested on: GAT T0 generation transformants and wild-type control ZH11 seedlings; assay: Bispyribac-sodium resistance phenotype, spraying of T0 seedlings
Experimental: In order to test the working efficiency of screening marker elements in the GAT system, a 600 mg/L bispyribac-sodium solution was prepared with 10% bispyribac-sodium (Nominee, Japan), and 563 GATT0 generation obtained in example 2 and wild-type control ZH11 3 to 5 leaf stage seedlings were sprayed. After spraying, continuous observation was carried out.

[2] = tested on: seeds of GAT key strains and ZH11; assay: Tissue culture germination screening on bispyribac-sodium (BS) medium; details: 1/2MS + 3 μm bispyribac-sodium
Experimental: In order to identify the working efficiency of screening marker elements in the GAT T1 generation, tissue culture germination was used to screen the T1 generation of key strains and candidate strains.
Therefore, ½MS medium+3 μm bispyribac-sodium was prepared for screening the key strains and the candidate strains of GAT, and the germination results were shown in Table 2.

[3] = tested on: seeds of GAT strains, hybrids with sterile line 1907, ZH11, 9311, MH63; assay: Detection of the escape rate of GAT pollen: seed screening on BS medium; details: 21 days; for Survival number / Survival rate: 1/2MS + 3uM BS
Description: To further detect whether its pollen escapes, in this example, the rice material of common sterile line was pollinated through the strains of the excellent initial maintainer line of GAT, and it was checked whether the hybrid seed has the resistance to bispyribac-sodium (the method is the same as that in Example 5). […] GAT strains (23-2, 88-4) were selected as male parents to pollinate female sterile line 1907, and 221 and 373 hybrid seeds were obtained respectively.

[4] = tested on: GAT T0 generation transformants and wild-type control ZH11; assay: Bentazon sensitive phenotype, spraying of scribed leaf area, T0 generation
Experimental: In order to test the working efficiency of herbicide sensitive elements in the GAT system, after the identification of bispyribac-sodium resistance phenotype, a 3 g/L bentazone solution was prepared with 48% bentazone mother liquor (Changzhou Precision Biotechnology Co., Ltd.). The scribed area of plant leaves of surviving GAT T0 generation (347 strains) in the last spraying experiment with bispyribac-sodium and the wild-type control ZH11 were sprayed with the resultant solution, and were continuously observed after spraying. Some GAT transformants T0 had curly and yellow leaf tips on the third day after spraying. […] Meanwhile, 86 strains were highly resistant to bispyribac-sodium and highly sensitive to bentazone. Based on the similar analysis of the transformation events of the above bispyribac-sodium resistance strains, it can be seen that this experiment confirmed that the working efficiency of herbicide sensitive elements in the GAT system is high, and the created GAT seed breeding system can quickly and accurately identify the corresponding phenotype thereof.

[5] = tested on: T1 generation seedlings of GAT key plants, ZH11, CK+ (P450i2-30); assay: Bentazone spraying of T1 generation seedlings; details: 3 g/L bentazone
Experimental: In order to identify the working efficiency of herbicide sensitive elements in the T1 generation of the GAT transformants, a 3 g/L bentazone solution was prepared with 48% bentazone mother liquor (Changzhou Precision Biotechnology Co., Ltd.). Some plants in the positive strains screened by bispyribac-sodium in Example 5-1 were sprayed, and continuously observed after spraying. […] See Table 3 and FIG. 22 for specific results.
ZH11 is Resistance Control, CK+(P450i2-30) is the Sensitive Positive Control

[6] = 563 GAT T0 transformants, 600 mg/L spray, 14th day
[7] = hybrid 1907 × 23-2(T1), total number 211
[8] = hybrid 1907×88-4(T1), total number 363
[9] = strain 23-2(T2), total number 200
[10] = strain 88-4(T2), total number 200
[11] = 347 GAT T0 strains, 3 g/L bentazone
[12] = strain 11-1 T1, 8 plants sprayed
[13] = strain 23-2 T1, 12 plants sprayed
[14] = strain 23 T1, 14 plants sprayed
[15] = strain 53-3 T1, 8 plants sprayed
[16] = strain 77-2 T1, 2 plants sprayed
[17] = strain 88-4 T1, 13 plants sprayed
[18] = strain 93-2 T1, 9 plants sprayed
[19] = strain 95-2 T1, 2 plants sprayed
[20] = strain 174-3 T1, 10 plants sprayed
[21] = strain 175-4 T1, 7 plants sprayed
[22] = strain CK + (P450i2-30) (sensitive positive control), 4 plants sprayed
[23] = strain ZH11 (resistance control), 4 plants sprayed

SMILES: COc1cc(OC)nc(Oc2cccc(Oc3nc(OC)cc(OC)n3)c2C(=O)O)n1 [bispyribac-sodium]
- number of growth inhibited strains (mediumly resistant) [1, 6]: 163 strains
- number of irreversible death or near-death strains (non-resistant or low resistant) [1, 6]: 216 strains
- number of normal growth strains (highly resistant) [1, 6]: 184 strains
- probability of GAT transformants showing normal growth, highly resistant ([1]; GAT T0 transformants, 600 mg/L spray): 32.68%
- appearance of leaves after spraying ([1]; control ZH11, 600 mg/L bispyribac-sodium spray, 3 to 5 leaf stage, third day): withered and yellow
- appearance after spraying ([1]; control ZH11, 600 mg/L bispyribac-sodium spray, 14th day): completely died
- appearance after spraying ([1]; control ZH11, 600 mg/L bispyribac-sodium spray, seventh day): withered and yellow and was dying
- Germination ([2]; strain 4, 45 seeds): 24
- Non-germination ([2]; strain 4, 45 seeds): 21
- Germination ([2]; strain 7, 29 seeds): 11
- Non-germination ([2]; strain 7, 29 seeds): 18
- Germination ([2]; strain 11-1, 58 seeds): 26
- Non-germination ([2]; strain 11-1, 58 seeds): 32
- Germination ([2]; strain 20, 40 seeds): 10
- Non-germination ([2]; strain 20, 40 seeds): 30
- Germination ([2]; strain 23-2, 30 seeds): 19
- Non-germination ([2]; strain 23-2, 30 seeds): 11
- Germination ([2]; strain 23, 110 seeds): 61
- Non-germination ([2]; strain 23, 110 seeds): 49
- Germination ([2]; strain 28, 59 seeds): 16
- Non-germination ([2]; strain 28, 59 seeds): 43
- Germination ([2]; strain 53-3, 19 seeds): 7
- Non-germination ([2]; strain 53-3, 19 seeds): 12
- Germination ([2]; strain 77-2, 46 seeds): 29
- Non-germination ([2]; strain 77-2, 46 seeds): 17
- Germination ([2]; strain 88-4, 62 seeds): 30
- Non-germination ([2]; strain 88-4, 62 seeds): 32
- Germination ([2]; strain 93-2, 34 seeds): 15
- Non-germination ([2]; strain 93-2, 34 seeds): 19
- Germination ([2]; strain 95-2, 35 seeds): 10
- Non-germination ([2]; strain 95-2, 35 seeds): 25
- Germination ([2]; strain 174-3, 15.2 seeds): 12
- Non-germination ([2]; strain 174-3, 15.2 seeds): 3.2
- Germination ([2]; strain 175-4): 14
- Non-germination ([2]; strain 175-4, 27.3 seeds): 13.3
- Germination ([2]; strain ZH11 (CK), 40 seeds): 0
- Non-germination ([2]; strain ZH11 (CK), 40 seeds): 40
- Survival number [3, 7]: 0
- Survival rate [3, 7]: 0.00%
- Survival number [3, 8]: 0
- Survival rate [3, 8]: 0.00%
- germination rate ([3]; hybrid seeds 1907 x GAT strains 23-2, 88-4, 1/2MS+3 uM BS): 0%
- Survival number [3, 9]: 95
- Survival rate [3, 9]: 47.50%
- Survival number [3, 10]: 83
- Survival rate [3, 10]: 41.50%
- Survival number ([3]; strain 9311, total number 200): 0
- Survival rate ([3]; strain 9311, total number 200): 0.00%
- Survival number ([3]; strain MH63, total number 200): 0
- Survival rate ([3]; strain MH63, total number 200): 0.00%
- Survival number ([3]; strain ZH11, total number 200): 0
- Survival rate ([3]; strain ZH11, total number 200): 0.00%

SMILES: CC(C)N1C(=O)c2ccccc2NS1(=O)=O [bentazone]
- number of low sensitive or non-phenotypic strains [4, 11]: 122 strains
- number of strains withered severely then recovered (moderately sensitive) [4, 11]: 81 strains
- number of strains with irreversible leaf wilt (highly sensitive) ([4]; 347 GAT T0 strains, 3 g/L bentazone, 7th to 14th day): 144 strains
- number of strains highly resistant to bispyribac-sodium and highly sensitive to bentazone ([4]; GAT T0 strains, 600 mg/L bispyribac-sodium then 3 g/L bentazone): 86 strains
- number of strains with individual plants slightly less sensitive, eventually died ([5]; T1 strains): 5 strains
- number of strains highly susceptible to wilt and death (highly sensitive) ([5]; bispyribac-sodium resistance T1 strains, 14th day): 6 strains
- Highly sensitive ratio ([5]; strain 4 T1, 2 plants sprayed): 1/2
- Highly sensitive(dead) ([5]; strain 4 T1, 2 plants sprayed): 1
- Low sensitivity ([5]; strain 4 T1, 2 plants sprayed): 0
- Medium sensitivity ([5]; strain 4 T1, 2 plants sprayed): 1
- No phenotype ([5]; strain 4 T1, 2 plants sprayed): 0
- Highly sensitive ratio ([5]; strain 7 T1, 15 plants sprayed): 2/15
- Highly sensitive(dead) ([5]; strain 7 T1, 15 plants sprayed): 2
- Low sensitivity ([5]; strain 7 T1, 15 plants sprayed): 13
- Medium sensitivity ([5]; strain 7 T1, 15 plants sprayed): 0
- No phenotype ([5]; strain 7 T1, 15 plants sprayed): 0
- Highly sensitive ratio [5, 12]: 8/8
- Highly sensitive(dead) [5, 12]: 8
- Low sensitivity [5, 12]: 0
- Medium sensitivity [5, 12]: 0
- No phenotype [5, 12]: 0
- Highly sensitive ratio ([5]; strain 20 T1, 3 plants sprayed): 2/3
- Highly sensitive(dead) ([5]; strain 20 T1, 3 plants sprayed): 2
- Low sensitivity ([5]; strain 20 T1, 3 plants sprayed): 0
- Medium sensitivity ([5]; strain 20 T1, 3 plants sprayed): 1
- No phenotype ([5]; strain 20 T1, 3 plants sprayed): 0
- Highly sensitive ratio [5, 13]: 11/12
- Highly sensitive(dead) [5, 13]: 11
- Low sensitivity [5, 13]: 0
- Medium sensitivity [5, 13]: 1
- No phenotype [5, 13]: 0
- Highly sensitive ratio [5, 14]: 14/14
- Highly sensitive(dead) [5, 14]: 14
- Low sensitivity [5, 14]: 0
- Medium sensitivity [5, 14]: 0
- No phenotype [5, 14]: 0
- Highly sensitive ratio ([5]; strain 28 T1, 7 plants sprayed): 7/7
- Highly sensitive(dead) ([5]; strain 28 T1, 7 plants sprayed): 7
- Low sensitivity ([5]; strain 28 T1, 7 plants sprayed): 0
- Medium sensitivity ([5]; strain 28 T1, 7 plants sprayed): 0
- No phenotype ([5]; strain 28 T1, 7 plants sprayed): 0
- Highly sensitive ratio [5, 15]: 8/8
- Highly sensitive(dead) [5, 15]: 8
- Low sensitivity [5, 15]: 0
- Medium sensitivity [5, 15]: 0
- No phenotype [5, 15]: 0
- Highly sensitive ratio [5, 16]: 2/2
- Highly sensitive(dead) [5, 16]: 2
- Low sensitivity [5, 16]: 0
- Medium sensitivity [5, 16]: 0
- No phenotype [5, 16]: 0
- Highly sensitive ratio [5, 17]: 12/13
- Highly sensitive(dead) [5, 17]: 12
- Low sensitivity [5, 17]: 0
- Medium sensitivity [5, 17]: 1
- No phenotype [5, 17]: 0
- Highly sensitive ratio [5, 18]: 8/9
- Highly sensitive(dead) [5, 18]: 8
- Low sensitivity [5, 18]: 1
- Medium sensitivity [5, 18]: 0
- No phenotype [5, 18]: 0
- Highly sensitive ratio [5, 19]: 2/2
- Highly sensitive(dead) [5, 19]: 2
- Low sensitivity [5, 19]: 0
- Medium sensitivity [5, 19]: 0
- No phenotype [5, 19]: 0
- Highly sensitive ratio [5, 20]: 4/10
- Highly sensitive(dead) [5, 20]: 4
- Low sensitivity [5, 20]: 6
- Medium sensitivity [5, 20]: 0
- No phenotype [5, 20]: 0
- Highly sensitive ratio [5, 21]: 5/7
- Highly sensitive(dead) [5, 21]: 5
- Low sensitivity [5, 21]: 0
- Medium sensitivity [5, 21]: 2
- No phenotype [5, 21]: 0
- Highly sensitive ratio [5, 22]: 4/4
- Highly sensitive(dead) [5, 22]: 4
- Low sensitivity [5, 22]: 0
- Medium sensitivity [5, 22]: 0
- No phenotype [5, 22]: 0
- Highly sensitive ratio [5, 23]: 0/4
- Highly sensitive(dead) [5, 23]: 0
- Low sensitivity [5, 23]: 0
- Medium sensitivity [5, 23]: 0
- No phenotype [5, 23]: 4
